Measured values reported in paper PMC10974284, “Discovery of Novel 4-Hydroxyquinazoline Derivatives: In Silico, In Vivo and In Vitro Studies Using Primary PARPi-Resistant Cell Lines” (Molecules, 2024).
Read-outs that look alike come from different tables or passages of the source.

Assays:
[1] = system: HCC1937 cell lines; assay: MTT cytotoxicity assay, HCC1937; format: cell-based, human; conditions: for IC50 / inhibition at 50 µM: Homo sapiens; for IC50: 72 h (3-Days) drug exposure, read-out: IC50 HCC1937; for inhibition at 50 µM: read-out: Inhibition rate (%) HCC1937
Procedure: (§1) After treatment with target compounds at the different concentrations, MTT was added and the cells were incubated for another 4 h. The IC50 values of the selected compounds were evaluated by the same method. The cells were treated with compounds at different concentrations. The OD values were detected using a microplate reader at 570 nm.

[2] = system: HCT-15 cell lines; assay: MTT cytotoxicity assay, HCT-15; format: cell-based, human; conditions: for IC50 / inhibition at 50 µM: Homo sapiens; for IC50: 72 h (3-Days) drug exposure, read-out: IC50 HCT-15; for inhibition at 50 µM: read-out: Inhibition rate (%) HCT-15
Procedure: as §1

SMILES | IC50 ([1]; HCC1937, MTT) [µM] | melting point [°C] | IC50 ([2]; HCT-15, MTT) [µM] | also measured
O=C(Nc1ccccc1F)N1CCN(Cc2nc3ccccc3c(=O)[nH]2)CC1 [A1, N-(2-fluorophenyl)-4-((4-oxo-3,4-dihydroquinazolin-2-yl)methyl)piperazine-1-carboxamide] | 16.6 ± 1.12 | 192.5 to 194.2 | 18.4 ± 0.91 | 
O=C(Nc1cccc(F)c1)N1CCN(Cc2nc3ccccc3c(=O)[nH]2)CC1 [A2, N-(3-fluorophenyl)-4-((4-oxo-3,4-dihydroquinazolin-2-yl)methyl)piperazine-1-carboxamide] | > 50 | 189.5 to 192.1 | 34.9 ± 2.23 | 
O=C(Nc1ccc(F)cc1)N1CCN(Cc2nc3ccccc3c(=O)[nH]2)CC1 [A3, N-(4-fluorophenyl)-4-((4-oxo-3,4-dihydroquinazolin-2-yl)methyl)piperazine-1-carboxamide] | > 50 | 196.5 to 197.8 | > 50 | 
O=C(Nc1ccccc1Cl)N1CCN(Cc2nc3ccccc3c(=O)[nH]2)CC1 [A4, N-(2-chlorophenyl)-4-((4-oxo-3,4-dihydroquinazolin-2-yl)methyl)piperazine-1-carboxamide] | 14.7 ± 1.67 | 197.9 to 199.6 | 19.1 ± 1.12 | 
O=C(Nc1cccc(Cl)c1)N1CCN(Cc2nc3ccccc3c(=O)[nH]2)CC1 [A5, N-(3-chlorophenyl)-4-((4-oxo-3,4-dihydroquinazolin-2-yl)methyl)piperazine-1-carboxamide] | 25.9 ± 0.96 | 193.3 to 195.2 | 19.1 ± 0.79 | 
O=C(Nc1ccc(Cl)cc1)N1CCN(Cc2nc3ccccc3c(=O)[nH]2)CC1 [A6, N-(4-chlorophenyl)-4-((4-oxo-3,4-dihydroquinazolin-2-yl)methyl)piperazine-1-carboxamide] | > 50 | 189.8 to 191.4 | 21.4 ± 0.86 | 
O=C(Nc1ccccc1Br)N1CCN(Cc2nc3ccccc3c(=O)[nH]2)CC1 [A7, N-(2-bromophenyl)-4-((4-oxo-3,4-dihydroquinazolin-2-yl)methyl)piperazine-1-carboxamide] | 40.3 ± 3.32 | 195.1 to 196.7 | 29.6 ± 1.37 | 
O=C(Nc1cccc(Br)c1)N1CCN(Cc2nc3ccccc3c(=O)[nH]2)CC1 [A8, N-(3-bromophenyl)-4-((4-oxo-3,4-dihydroquinazolin-2-yl)methyl)piperazine-1-carboxamide] | 47.4 ± 2.96 | 194.2 to 196.3 | 27.7 ± 2.56 | 
O=C(Nc1ccc(Br)cc1)N1CCN(Cc2nc3ccccc3c(=O)[nH]2)CC1 [A9, N-(4-bromophenyl)-4-((4-oxo-3,4-dihydroquinazolin-2-yl)methyl)piperazine-1-carboxamide] | > 50 | 187.8 to 188.9 | > 50 | 
COC(=O)c1ccccc1N [compound 1] |  |  |  | inhibition at 50 µM ([1]; HCC1937, 72 h): 12.7%; inhibition at 50 µM ([2]; HCT-15, 72 h): 13.7%
O=c1[nH]c(CCl)nc2ccccc12 [compound 2] |  |  |  | inhibition at 50 µM ([1]; HCC1937, 50 μM, 72 h, MTT): 10.3%; inhibition at 50 µM ([2]; HCT-15, 50 μM, 72 h, MTT): 31.9%
CC(C)(C)OC(=O)N1CCN(Cc2nc3ccccc3c(=O)[nH]2)CC1 [compound 3] |  |  |  | inhibition at 50 µM ([1]; HCC1937, 50 μM, 72 h, MTT): 19.5%; inhibition at 50 µM ([2]; HCT-15, 50 μM, 72 h, MTT): 52.3%
O=c1[nH]c(CN2CCNCC2)nc2ccccc12 [compound 4] |  |  |  | inhibition at 50 µM ([1]; HCC1937, 50 μM, 72 h, MTT): 16.5%; inhibition at 50 µM ([2]; HCT-15, 50 μM, 72 h, MTT): 48.9%
Oc1ccc(N2CCNCC2)cc1 [compound 23] |  |  |  | Inhibition rate (%) HCC1937 ([1]; 50 μM, 72 h, MTT): 9.2%; Inhibition rate (%) HCT-15 ([2]; 50 μM, 72 h, MTT): 41.9%
O=c1[nH]c(=O)n([C@H]2C[C@H](O)[C@@H](CO)O2)cc1/C=C/Br [compound 33] |  |  |  | Inhibition rate (%) HCC1937 ([1]; 50 μM, 72 h, MTT): 17.3%; Inhibition rate (%) HCT-15 ([2]; 50 μM, 72 h, MTT): 28.5%
C[C@H](CCC(=O)O)[C@H]1CC[C@H]2[C@@H]3C(=O)C[C@@H]4CC(=O)CC[C@]4(C)[C@H]3CC(=O)[C@]12C [compound 35] |  |  |  | Inhibition rate (%) HCC1937 ([1]; 50 μM, 72 h, MTT): 21.4%; Inhibition rate (%) HCT-15 ([2]; 50 μM, 72 h, MTT): 12.3%
Cc1ccc(-c2cc(C(F)(F)F)nn2-c2ccc(S(N)(=O)=O)cc2)cc1 [compound 54] |  |  |  | Inhibition rate (%) HCC1937 ([1]; 50 μM, 72 h, MTT): 33.1%; Inhibition rate (%) HCT-15 ([2]; 50 μM, 72 h, MTT): 33.5%
